From ChEMBL document CHEMBL1201862, “PubChem BioAssay data set” (2004)
Counter-ions that a name gives are not always drawn.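 Exposure lasted 48 hours, with cells grown in 96-well plates and compounds tested at five concentrations. Here, GI50 denotes the concentration required for 50% inhibition of growth.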 The source made the active and inactive calls. Rule as the data show it: active = GI50 up to about 1.1 µM and inactive = higher.

Experiments:
Test in all cases: growth of human tumour cells (NCI), 48 h
[1] = test system: A498
[2] = test system: A549
[3] = test system: CCRF-CEM
[4] = test system: COLO 205
[5] = test system: EKVX
[6] = test system: HOP-62
[7] = test system: LOX IMVI
[8] = test system: M14
[9] = test system: MCF7
[10] = test system: Malme-3M
[11] = test system: NCI-H23
[12] = test system: NCI/ADR-RES
[13] = test system: RXF 393
[14] = test system: SF-268
[15] = test system: SF-539
[16] = test system: SK-MEL-28
[17] = test system: SK-MEL-5
[18] = test system: SNB-75
[19] = test system: U-251
[20] = test system: NCI-H460

| Compound | GI50 [1] | GI50 [2] | GI50 [3] | GI50 [4] | GI50 [5] | GI50 [6] | GI50 [7] | GI50 [8] | GI50 [9] | GI50 [10] | GI50 [11] | GI50 [12] | GI50 [13] | GI50 [14] | GI50 [15] | GI50 [16] | GI50 [17] | GI50 [18] | GI50 [19] | GI50 [20] |
| --- | --- | --- | --- | --- | --- | --- | --- | --- | --- | --- | --- | --- | --- | --- | --- | --- | --- | --- | --- | --- |
| COC(=O)C[C@H](COCc1ccccc1)NC(=O)C[C@H](COCc1ccccc1)NC(=O)C[C@H](COCc1ccccc1)NC(=O)OC(C)(C)C | 24 µM (inactive) | 38.5 µM (inactive) | > 100 µM (inactive) | > 100 µM (inactive) | 25.8 µM (inactive) | 16.9 µM (inactive) | 58.7 µM (inactive) | 54.6 µM (inactive) | 11.8 µM (inactive) | > 100 µM (inactive) | > 100 µM (inactive) | > 100 µM (inactive) | 20.9 µM (inactive) | 41.5 µM (inactive) | 95.3 µM (inactive) | 73.1 µM (inactive) | > 100 µM (inactive) | 13.1 µM (inactive) | 94 µM (inactive) |  |
| CC(=O)C1(Cc2cccc3ccccc23)S(=O)(=O)OCCOS1(=O)=O | 19 µM (inactive) |  | 38.7 µM (inactive) | 17 µM (inactive) | 18.5 µM (inactive) | 20.9 µM (inactive) | 12.1 µM (inactive) | 23.4 µM (inactive) | 20.8 µM (inactive) | 17.3 µM (inactive) | 22.9 µM (inactive) | 21.8 µM (inactive) | 12.7 µM (inactive) | 19.9 µM (inactive) | 17.9 µM (inactive) | 19.3 µM (inactive) | 12.2 µM (inactive) | 35.4 µM (inactive) | 16.7 µM (inactive) | 17.3 µM (inactive) |
| O=C(NCCN(CCNC(=O)c1cccc(=O)n1O)CCN(CCNC(=O)c1cccc(=O)n1O)CCNC(=O)c1cccc(=O)n1O)c1cccc(=O)n1O | > 100 µM (inactive) | > 100 µM (inactive) | > 100 µM (inactive) | > 100 µM (inactive) |  | > 100 µM (inactive) | > 100 µM (inactive) | > 100 µM (inactive) | > 100 µM (inactive) | 60.8 µM (inactive) | > 100 µM (inactive) | > 100 µM (inactive) | > 100 µM (inactive) | > 100 µM (inactive) | > 100 µM (inactive) | > 100 µM (inactive) | > 100 µM (inactive) | > 100 µM (inactive) | > 100 µM (inactive) | > 100 µM (inactive) |
| O=C(NNC(=O)c1ccncc1)c1ccncc1 | > 100 µM (inactive) | > 100 µM (inactive) | > 100 µM (inactive) | > 100 µM (inactive) | > 100 µM (inactive) | > 100 µM (inactive) | > 100 µM (inactive) | > 100 µM (inactive) | > 100 µM (inactive) | > 100 µM (inactive) | > 100 µM (inactive) | > 100 µM (inactive) | > 100 µM (inactive) | > 100 µM (inactive) |  | > 100 µM (inactive) | > 100 µM (inactive) | > 100 µM (inactive) | > 100 µM (inactive) | > 100 µM (inactive) |
| CNNCc1ccc(C(=O)NC(C)C)cc1 [PROCARBAZINE HYDROCHLORIDE] | > 500 µM (inactive) | 335 µM (inactive) | 461 µM (inactive) | > 500 µM (inactive) | > 500 µM (inactive) | 383 µM (inactive) | > 486 µM (inactive) | > 500 µM (inactive) | > 486 µM (inactive) | > 457 µM (inactive) | > 500 µM (inactive) | > 500 µM (inactive) | > 423 µM (inactive) | > 500 µM (inactive) | > 500 µM (inactive) | > 500 µM (inactive) | 385 µM (inactive) | 435 µM (inactive) |  | > 500 µM (inactive) |
| CCCCc1nccc2c(C)c3[nH]c4ccccc4c3cc12 | 4.67 µM (inactive) | 3.87 µM (inactive) | 2.85 µM (inactive) | 0.92 µM (active) | 4.48 µM (inactive) | 3.68 µM (inactive) | 1.5 µM (inactive) |  | 2.69 µM (inactive) | 6.04 µM (inactive) | 3.66 µM (inactive) | 1.71 µM (inactive) | 2.22 µM (inactive) | 5.87 µM (inactive) | 2.45 µM (inactive) | 4.26 µM (inactive) | 2.24 µM (inactive) | 5.93 µM (inactive) | 3.37 µM (inactive) | 2.17 µM (inactive) |
| O=C(CSCC(=O)N/N=C/c1ccncc1)N/N=C/c1ccncc1 | > 100 µM (inactive) | > 100 µM (inactive) | > 100 µM (inactive) |  | > 100 µM (inactive) | > 100 µM (inactive) | > 100 µM (inactive) | > 100 µM (inactive) | > 100 µM (inactive) | > 100 µM (inactive) | > 100 µM (inactive) | > 100 µM (inactive) | > 100 µM (inactive) | > 100 µM (inactive) | > 100 µM (inactive) | > 100 µM (inactive) | > 100 µM (inactive) | > 100 µM (inactive) | > 100 µM (inactive) | > 100 µM (inactive) |
| N#Cc1c(C#N)c(-c2ccccc2)n(Cc2ccccc2)c1N | > 100 µM (inactive) | > 100 µM (inactive) | > 100 µM (inactive) | > 100 µM (inactive) | > 100 µM (inactive) | 51.1 µM (inactive) | > 100 µM (inactive) | > 100 µM (inactive) | > 100 µM (inactive) | > 100 µM (inactive) | > 100 µM (inactive) | > 100 µM (inactive) | 48.6 µM (inactive) | 47.2 µM (inactive) | 26 µM (inactive) |  | > 100 µM (inactive) | 14.4 µM (inactive) | 80.5 µM (inactive) |  |
| CC(=O)OC1CC[C@@]2(C)C(=CC[C@@H]3[C@@H]2CC[C@]2(C)C(OC(C)=O)[C@H](n4ccnc4)C[C@@H]32)C1 (some centres undefined) | 90.4 µM (inactive) | 35.3 µM (inactive) | 11.7 µM (inactive) | 18.5 µM (inactive) | 37.7 µM (inactive) |  | 18.7 µM (inactive) | 17.2 µM (inactive) | 16.4 µM (inactive) | 14.6 µM (inactive) | 37.5 µM (inactive) | 25.8 µM (inactive) | 30.2 µM (inactive) | 41.5 µM (inactive) | 15.3 µM (inactive) | 17.7 µM (inactive) | 16.3 µM (inactive) | 54.7 µM (inactive) | 37.8 µM (inactive) | 17.4 µM (inactive) |
| Cc1ccc(C(=O)N/N=C(\N=N\c2ccccc2)c2ccc(N(CCC#N)CCC#N)cc2C)cc1 | > 100 µM (inactive) | > 100 µM (inactive) | > 100 µM (inactive) | > 100 µM (inactive) | 74.6 µM (inactive) | 23.1 µM (inactive) | 99.1 µM (inactive) | > 100 µM (inactive) | 53.5 µM (inactive) |  | 85.7 µM (inactive) | > 100 µM (inactive) | 38.9 µM (inactive) | 24.2 µM (inactive) | 18.3 µM (inactive) | 13 µM (inactive) | 31.8 µM (inactive) | 34 µM (inactive) | 92.5 µM (inactive) | > 100 µM (inactive) |
